# Results from patent US12268683B2, “Compounds and methods for synergistic activation of M channels” (THE REGENTS OF THE UNIVERSITY OF CALIFORNIA, priority 2018, dated 2025).
# Tested on: water-injected control oocytes
# Assay: TEVC of water-injected control oocytes (endogenous current, EM)
# Assay type: cell-based, Xenopus laevis
# Procedure: TEVC recording was performed at room temperature with an OC-725C amplifier (Warner Instruments, Hamden, Conn.) and pClamp10.2 software (Molecular Devices, Sunnyvale, Calif.) 3-5 days after cRNA injection as described in the section above. Oocytes were placed in a small-volume oocyte bath (Warner) and viewed with a dissection microscope. Chemicals were sourced from Sigma. Bath solution was (in mM): 96 NaCl, 4 KCl, 1 MgCl2, 1 CaCl2. 10 HEPES (pH 7.6). […] MTX (DMSO), sorbic acid (ethanol), and glutaconic acid (molecular grade H2O) were stored at −20° C. as 1 M stocks. Oleamide was stored as a 1 mM stock in ethanol at 4° C. […] Currents were recorded in response to pulses between −80 and +40 mV at 20 mV intervals, or a single pulse to +40 mV, from a holding potential of −80 mV, to yield current-voltage relationships, current magnitude, and for quantifying activation rate. […]
# TEVC recording was performed at room temperature using a OC-725C amplifier (Warner Instruments, Hamden, Conn.) and pClamp8 software (Molecular Devices, Sunnyvale, Calif.) 2-5 days after cRNA injection as described in the section above. […] Currents were recorded in response to pulses between −80 mV and +40 mV at 20 mV intervals, or a single pulse to +40 mV, from a holding potential of −80 mV, to yield current-voltage relationships, current magnitude, and for quantifying activation rate. […]
row,Structure (SMILES),effect on endogenous current or EM of water-injected control oocytes
1,"CC(=O)c1c(O)c(C)c(O)c(Cc2c(O)c3c(c(C(=O)/C=C/c4ccccc4)c2O)OC(C)(C)C=C3)c1O [MTX, mallotoxin]",no effect
2,"NCC1(CC(=O)O)CCCCC1 [gabapentin, reference compound]",no effect
